Measured values as given in ChEMBL document CHEMBL5465560, “Selectivity Literature for EUbOPEN Chemogenomic Library” (2024).
pIC50: −log10 of the molar value.

Assays:
[1] = target: Receptor-interacting serine/threonine-protein kinase 2 (Homo sapiens, UniProt O43353); test: Selectivity interaction (NanoBRET assay (HEK293T cells)) EUB0000229b RIPK2; assay type: cell-based, HEK-293T
[2] = target: Homeodomain-interacting protein kinase 2 (Homo sapiens, UniProt Q9H2X6); test: Selectivity interaction (KinomeScan (DiscoverX)) EUB0000695a HIPK2; conditions: at 100 nM
[3] = target: Serine/threonine-protein kinase N1 (Homo sapiens, UniProt Q16512); test: Selectivity interaction (Kinase panel (Z-LYTE Assay)) EUB0001632a PKN1; conditions: at 10 µM
[4] = target: T1, Serine/threonine-protein kinase TAO3 (Homo sapiens) (UniProt Q9H2K8); test: Selectivity interaction (KinomeScan (DiscoverX)) EUB0000666a TAOK3; conditions: at 10 µM
T1 sequence (whole entry): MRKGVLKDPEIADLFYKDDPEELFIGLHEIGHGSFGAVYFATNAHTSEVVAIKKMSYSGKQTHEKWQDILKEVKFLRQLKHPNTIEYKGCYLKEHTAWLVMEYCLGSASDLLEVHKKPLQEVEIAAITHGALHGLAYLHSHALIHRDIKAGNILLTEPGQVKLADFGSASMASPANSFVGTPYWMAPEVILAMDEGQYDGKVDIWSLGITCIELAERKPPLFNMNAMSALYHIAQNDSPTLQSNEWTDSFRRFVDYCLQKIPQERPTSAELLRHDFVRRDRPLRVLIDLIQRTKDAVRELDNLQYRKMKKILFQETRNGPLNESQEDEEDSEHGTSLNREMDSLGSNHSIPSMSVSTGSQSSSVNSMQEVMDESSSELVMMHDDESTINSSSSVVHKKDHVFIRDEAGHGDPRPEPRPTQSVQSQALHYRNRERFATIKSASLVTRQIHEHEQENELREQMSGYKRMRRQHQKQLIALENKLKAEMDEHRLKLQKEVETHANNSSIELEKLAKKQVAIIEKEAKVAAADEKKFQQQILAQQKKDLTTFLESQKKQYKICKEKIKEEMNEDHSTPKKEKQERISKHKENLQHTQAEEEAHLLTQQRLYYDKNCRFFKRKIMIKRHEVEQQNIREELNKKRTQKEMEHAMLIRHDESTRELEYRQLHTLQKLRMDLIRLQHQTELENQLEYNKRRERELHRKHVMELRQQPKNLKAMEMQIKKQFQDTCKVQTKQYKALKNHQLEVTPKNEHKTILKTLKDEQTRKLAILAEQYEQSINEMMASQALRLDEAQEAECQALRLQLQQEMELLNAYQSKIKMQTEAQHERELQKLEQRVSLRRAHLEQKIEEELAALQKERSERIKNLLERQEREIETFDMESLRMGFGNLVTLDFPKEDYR

[5] = target: CDK3/cyclin E (Homo sapiens) (UniProt P24864+O96020+Q00526); test: Selectivity interaction (Millipore kinase profiler) EUB0000124b CDK3; assay type: protein-complex assay; conditions: at 10 µM
[6] = target: Putative phosphatidylinositol 4-kinase alpha-like protein P2 (Homo sapiens) (UniProt A4QPH2); test: Selectivity interaction (ActivX KiNativ screen (kinase selectivity in THP-1 cell lysates)) EUB0000639a PI4KAP2; assay type: subcellular; conditions: lysate
[7] = target: Mitogen-activated protein kinase kinase kinase kinase 1 (Homo sapiens) (UniProt Q92918); test: Selectivity interaction (ActivX KiNativ screen (kinase selectivity in THP-1 cell lysates)) EUB0000639a MAP4K1; assay type: subcellular; conditions: lysate
[8] = target: T2, Mitogen-activated protein kinase kinase kinase 7 (Homo sapiens) (UniProt O43318); test: Selectivity interaction (ActivX KiNativ screen (kinase selectivity in THP-1 cell lysates)) EUB0000639a MAP3K7; assay type: subcellular; conditions: lysate
T2 sequence (whole entry): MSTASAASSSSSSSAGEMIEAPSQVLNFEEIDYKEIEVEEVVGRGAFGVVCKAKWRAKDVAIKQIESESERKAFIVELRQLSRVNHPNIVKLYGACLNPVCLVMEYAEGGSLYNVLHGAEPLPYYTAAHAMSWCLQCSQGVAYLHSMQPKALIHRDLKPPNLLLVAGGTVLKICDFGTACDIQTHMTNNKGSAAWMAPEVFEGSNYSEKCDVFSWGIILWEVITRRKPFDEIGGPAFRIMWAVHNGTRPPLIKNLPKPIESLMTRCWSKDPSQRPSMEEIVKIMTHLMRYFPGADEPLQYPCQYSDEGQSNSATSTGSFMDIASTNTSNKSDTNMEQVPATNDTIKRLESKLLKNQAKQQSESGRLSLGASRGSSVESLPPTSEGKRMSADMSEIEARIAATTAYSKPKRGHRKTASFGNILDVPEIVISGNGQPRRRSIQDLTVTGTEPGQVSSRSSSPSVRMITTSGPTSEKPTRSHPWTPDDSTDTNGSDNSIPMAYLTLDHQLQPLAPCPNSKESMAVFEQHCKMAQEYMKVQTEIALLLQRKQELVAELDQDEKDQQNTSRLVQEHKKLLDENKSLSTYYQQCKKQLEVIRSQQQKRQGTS

[9] = test system: Tyrosine-protein kinase ABL1 (Homo sapiens), P00519 [T315I]; test: Selectivity interaction (KinomeScan (DiscoverX)) EUB0000092b ABL1; conditions: at 10 µM
[10] = target: Protein kinase C delta type (Homo sapiens) (UniProt Q05655); test: Selectivity interaction (KinomeScan (DiscoverX)) EUB0000092b PRKCD; conditions: at 10 µM
Chain of Protein kinase C delta type (Homo sapiens) (Q05655 whole entry, looked up): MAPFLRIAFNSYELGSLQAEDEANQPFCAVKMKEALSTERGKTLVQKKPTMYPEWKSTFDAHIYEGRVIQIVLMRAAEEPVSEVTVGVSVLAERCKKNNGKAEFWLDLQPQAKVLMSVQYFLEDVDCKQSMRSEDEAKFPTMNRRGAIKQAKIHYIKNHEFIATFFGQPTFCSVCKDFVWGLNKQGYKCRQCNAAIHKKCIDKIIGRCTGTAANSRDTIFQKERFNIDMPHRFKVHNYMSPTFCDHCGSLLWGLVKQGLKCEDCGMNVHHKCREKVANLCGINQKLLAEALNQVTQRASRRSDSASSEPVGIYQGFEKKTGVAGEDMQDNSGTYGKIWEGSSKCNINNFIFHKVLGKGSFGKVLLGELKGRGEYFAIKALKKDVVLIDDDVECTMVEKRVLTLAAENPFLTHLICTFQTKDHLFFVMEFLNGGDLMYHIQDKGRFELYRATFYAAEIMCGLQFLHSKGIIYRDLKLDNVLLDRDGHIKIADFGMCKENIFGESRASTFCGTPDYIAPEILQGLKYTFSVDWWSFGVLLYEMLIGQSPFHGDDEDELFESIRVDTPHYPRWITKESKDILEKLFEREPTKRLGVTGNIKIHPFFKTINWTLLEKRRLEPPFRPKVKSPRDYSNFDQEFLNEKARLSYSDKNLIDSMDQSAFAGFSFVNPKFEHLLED

Chain of Putative phosphatidylinositol 4-kinase alpha-like protein P2 (Homo sapiens) (A4QPH2 whole entry): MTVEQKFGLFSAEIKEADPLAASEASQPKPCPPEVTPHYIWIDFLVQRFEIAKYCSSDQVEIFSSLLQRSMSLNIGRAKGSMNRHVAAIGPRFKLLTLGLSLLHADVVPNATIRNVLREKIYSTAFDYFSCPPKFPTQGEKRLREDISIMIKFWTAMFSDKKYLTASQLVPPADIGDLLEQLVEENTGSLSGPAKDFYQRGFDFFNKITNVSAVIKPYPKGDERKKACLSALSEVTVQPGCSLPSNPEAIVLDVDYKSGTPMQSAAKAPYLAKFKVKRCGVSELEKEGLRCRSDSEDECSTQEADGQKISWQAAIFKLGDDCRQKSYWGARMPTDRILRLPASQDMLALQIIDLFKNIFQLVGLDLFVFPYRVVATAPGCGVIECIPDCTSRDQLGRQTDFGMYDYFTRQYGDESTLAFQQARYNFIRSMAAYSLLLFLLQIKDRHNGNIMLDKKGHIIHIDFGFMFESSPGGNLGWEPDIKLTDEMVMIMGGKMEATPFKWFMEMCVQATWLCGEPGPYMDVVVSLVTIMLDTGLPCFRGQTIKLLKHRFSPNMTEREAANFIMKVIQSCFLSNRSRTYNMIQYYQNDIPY
Chain of Mitogen-activated protein kinase kinase kinase kinase 1 (Homo sapiens) (Q92918 whole entry, looked up): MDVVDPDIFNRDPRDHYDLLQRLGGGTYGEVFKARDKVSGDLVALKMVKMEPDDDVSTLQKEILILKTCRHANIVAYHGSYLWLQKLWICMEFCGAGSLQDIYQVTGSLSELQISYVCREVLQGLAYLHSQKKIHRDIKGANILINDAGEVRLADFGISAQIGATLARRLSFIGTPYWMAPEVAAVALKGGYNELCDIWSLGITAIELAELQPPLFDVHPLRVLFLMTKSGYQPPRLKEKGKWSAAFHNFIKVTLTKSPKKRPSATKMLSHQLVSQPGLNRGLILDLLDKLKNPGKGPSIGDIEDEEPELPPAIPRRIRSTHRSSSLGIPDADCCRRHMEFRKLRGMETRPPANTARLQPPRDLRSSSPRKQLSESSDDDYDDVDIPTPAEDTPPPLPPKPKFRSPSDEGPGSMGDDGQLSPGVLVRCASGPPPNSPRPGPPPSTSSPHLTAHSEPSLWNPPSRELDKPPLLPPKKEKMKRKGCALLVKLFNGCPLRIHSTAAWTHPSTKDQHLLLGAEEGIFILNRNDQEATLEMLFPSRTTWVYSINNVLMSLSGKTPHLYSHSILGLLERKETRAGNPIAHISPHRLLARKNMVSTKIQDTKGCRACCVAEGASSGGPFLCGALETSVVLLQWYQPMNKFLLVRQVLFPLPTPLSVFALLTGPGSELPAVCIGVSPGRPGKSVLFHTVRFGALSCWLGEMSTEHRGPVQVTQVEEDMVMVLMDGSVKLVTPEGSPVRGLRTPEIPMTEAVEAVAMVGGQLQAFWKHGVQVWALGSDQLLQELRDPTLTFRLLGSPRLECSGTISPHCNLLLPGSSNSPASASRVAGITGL
Chain of Serine/threonine-protein kinase N1 (Q16512 2-942 limits assumed): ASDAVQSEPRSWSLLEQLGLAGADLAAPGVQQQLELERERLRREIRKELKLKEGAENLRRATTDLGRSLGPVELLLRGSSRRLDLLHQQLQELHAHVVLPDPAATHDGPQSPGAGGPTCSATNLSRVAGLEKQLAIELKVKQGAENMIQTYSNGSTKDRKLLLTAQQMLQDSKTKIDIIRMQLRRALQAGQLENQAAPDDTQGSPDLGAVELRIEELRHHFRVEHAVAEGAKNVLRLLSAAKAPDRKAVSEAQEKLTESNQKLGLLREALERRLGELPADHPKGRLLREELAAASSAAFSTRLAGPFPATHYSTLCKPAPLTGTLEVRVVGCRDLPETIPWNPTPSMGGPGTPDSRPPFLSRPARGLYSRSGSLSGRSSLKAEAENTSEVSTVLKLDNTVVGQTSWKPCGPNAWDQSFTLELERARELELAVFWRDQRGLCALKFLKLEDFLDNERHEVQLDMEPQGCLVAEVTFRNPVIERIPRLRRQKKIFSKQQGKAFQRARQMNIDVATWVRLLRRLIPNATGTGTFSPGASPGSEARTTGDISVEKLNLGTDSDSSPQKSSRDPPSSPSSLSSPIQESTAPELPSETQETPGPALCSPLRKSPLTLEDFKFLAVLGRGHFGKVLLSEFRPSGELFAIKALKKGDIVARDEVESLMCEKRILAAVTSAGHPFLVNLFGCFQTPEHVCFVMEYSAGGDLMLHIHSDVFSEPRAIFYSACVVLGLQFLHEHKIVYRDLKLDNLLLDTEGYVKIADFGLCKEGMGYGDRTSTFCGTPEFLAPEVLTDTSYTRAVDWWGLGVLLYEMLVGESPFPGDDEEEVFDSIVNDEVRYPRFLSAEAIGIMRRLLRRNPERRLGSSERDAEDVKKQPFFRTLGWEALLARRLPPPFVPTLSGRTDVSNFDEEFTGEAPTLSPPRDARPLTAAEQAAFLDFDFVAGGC
Chain of Homeodomain-interacting protein kinase 2 (Q9H2X6 whole entry, looked up): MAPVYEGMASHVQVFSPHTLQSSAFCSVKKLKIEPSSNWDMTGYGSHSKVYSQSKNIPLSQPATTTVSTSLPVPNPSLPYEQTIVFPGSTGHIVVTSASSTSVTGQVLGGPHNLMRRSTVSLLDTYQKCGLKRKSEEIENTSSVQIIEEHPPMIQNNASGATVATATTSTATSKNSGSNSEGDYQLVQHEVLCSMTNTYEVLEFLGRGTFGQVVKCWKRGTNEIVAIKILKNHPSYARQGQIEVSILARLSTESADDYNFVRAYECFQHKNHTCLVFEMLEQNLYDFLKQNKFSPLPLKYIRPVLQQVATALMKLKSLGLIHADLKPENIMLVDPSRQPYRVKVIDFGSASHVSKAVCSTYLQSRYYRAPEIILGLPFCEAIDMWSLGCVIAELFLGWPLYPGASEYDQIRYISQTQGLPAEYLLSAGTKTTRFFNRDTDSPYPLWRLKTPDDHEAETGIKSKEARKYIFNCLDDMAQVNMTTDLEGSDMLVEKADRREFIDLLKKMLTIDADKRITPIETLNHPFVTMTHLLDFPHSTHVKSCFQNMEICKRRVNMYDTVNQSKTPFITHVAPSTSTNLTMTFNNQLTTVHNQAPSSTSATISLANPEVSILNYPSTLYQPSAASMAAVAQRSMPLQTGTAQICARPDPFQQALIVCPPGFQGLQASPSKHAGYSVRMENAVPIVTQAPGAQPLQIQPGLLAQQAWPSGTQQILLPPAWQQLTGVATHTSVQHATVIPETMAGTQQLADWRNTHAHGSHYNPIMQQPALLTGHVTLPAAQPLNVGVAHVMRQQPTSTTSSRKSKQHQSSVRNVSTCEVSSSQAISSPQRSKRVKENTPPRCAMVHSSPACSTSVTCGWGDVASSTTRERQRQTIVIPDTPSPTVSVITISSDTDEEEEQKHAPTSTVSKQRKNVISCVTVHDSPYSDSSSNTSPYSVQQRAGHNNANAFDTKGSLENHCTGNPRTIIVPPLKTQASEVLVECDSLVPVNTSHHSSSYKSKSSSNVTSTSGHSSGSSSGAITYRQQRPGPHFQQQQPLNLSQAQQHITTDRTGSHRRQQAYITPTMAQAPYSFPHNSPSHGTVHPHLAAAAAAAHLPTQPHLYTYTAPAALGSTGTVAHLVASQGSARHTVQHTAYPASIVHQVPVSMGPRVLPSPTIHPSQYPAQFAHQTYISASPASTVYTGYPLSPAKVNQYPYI
Chain of Receptor-interacting serine/threonine-protein kinase 2 (O43353 whole entry): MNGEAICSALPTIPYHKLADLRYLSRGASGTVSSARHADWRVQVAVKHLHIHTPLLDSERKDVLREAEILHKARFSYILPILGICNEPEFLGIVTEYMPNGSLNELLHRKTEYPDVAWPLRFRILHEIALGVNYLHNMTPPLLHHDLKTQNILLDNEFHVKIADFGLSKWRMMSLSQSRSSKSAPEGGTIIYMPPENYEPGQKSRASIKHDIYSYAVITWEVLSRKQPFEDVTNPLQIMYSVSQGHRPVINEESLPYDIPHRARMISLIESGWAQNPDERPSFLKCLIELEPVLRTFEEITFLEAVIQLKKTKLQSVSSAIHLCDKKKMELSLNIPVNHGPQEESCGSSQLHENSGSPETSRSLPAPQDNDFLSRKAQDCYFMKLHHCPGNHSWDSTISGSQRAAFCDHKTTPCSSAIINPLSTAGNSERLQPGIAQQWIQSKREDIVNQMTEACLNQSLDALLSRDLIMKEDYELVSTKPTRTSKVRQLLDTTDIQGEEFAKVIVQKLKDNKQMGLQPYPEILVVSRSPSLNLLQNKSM

## COc1cc(N(C)c2ccnc3ccc(C(F)(F)F)cc23)cc(OC)c1OC
[1]
  pIC50: < 5.00

## Cc1cc(F)c(C(=O)Nc2cccc(-c3nncn3C(C)C)n2)cc1-n1cnc(C2CC2)c1
[2]
  % of control: 83%

## Cn1cc(-n2cnc3c(NCc4nc5cc(Cl)c(Cl)cc5[nH]4)nc(N4CCOCC4)nc32)cn1
[3]
  % of control: -4.72%

## O=C(NOC[C@H](O)CO)c1ccc(F)c(F)c1Nc1ccc(I)cc1F
[4]
  % of control: 89%

## CC(=O)Nc1cccc(-n2c(=O)n(C3CC3)c(=O)c3c(Nc4ccc(I)cc4F)n(C)c(=O)c(C)c32)c1
[5]
  % of control: 101%

## CC[C@@H]1[C@H](F)C(=O)N[C@@H]1COc1nccc2cc(C(N)=O)c(OC)cc12 [ZIMLOVISERTIB]
[6]; at 0.01 µM
  % of inhibition: 7.2%
[6]; at 0.04 µM
  % of inhibition: -7.1%
[6]; at 0.2 µM
  % of inhibition: -24.4%
[6]; at 1 µM
  % of inhibition: -6%
[6]; at 5 µM
  % of inhibition: 38.5%
[7]; at 0.01 µM
  % of inhibition: 9.7%
[7]; at 0.04 µM
  % of inhibition: -10.3%
[7]; at 0.2 µM
  % of inhibition: -26.5%
[7]; at 1 µM
  % of inhibition: -6.5%
[7]; at 5 µM
  % of inhibition: -18.1%
[8]; at 0.01 µM
  % of inhibition: 6.8%
[8]; at 0.04 µM
  % of inhibition: 3.8%
[8]; at 0.2 µM
  % of inhibition: -2.9%
[8]; at 1 µM
  % of inhibition: -3.1%
[8]; at 5 µM
  % of inhibition: -8.6%

## CCC(=O)N1CCN(c2ccc(-n3c(=O)ccc4cnc5ccc(-c6cnc7ccccc7c6)cc5c43)cc2C(F)(F)F)CC1
[9]
  % of control: 100%
[10]
  % of control: 82%
